Source: US12351556B2, “Pyridin-2(1H)one derivatives, their preparation and their use for the treatment of pain” (INSTITUT NATIONAL DE LA SANTE ET DE LA RECHERCHE MEDICALE …, priority 2019, dated 2025)
“Also recorded” adds a separate entry of the source.

What was measured:
CDK2-Cyclin A = CDK2-Cyclin A (Homo sapiens (Human), UniProt P24941); assay: ICKP protein kinase panel screening; assay type: biochemical; details: duplicate assays, read-out: mean % residual activity
Experimental: (§1) FIG. 4 illustrates the studies carried out for compounds 67 and 69. Compounds 67 and 69 (FIG. 4B) were evaluated at the International Center For Kinase Profiling (ICKP, Dundee, Scotland) toward a panel of 13 protein kinases. The results (FIG. 4A) were expressed as the mean percentage of residual activity at 1 μM concentration (duplicate assays). Small disks: ≥90%, larger disk: 59%, for both compounds. The tree was generated using the Kinome Render software, and the illustration reproduced courtesy of Cell Signaling Technology, Inc. (www.cellsignal.com) Chartier et al PeerJ 2013, 1:e126.
(§2) Results are expressed as the mean percentage of residual activity at 10 μM (Table 3) or 1 μM (Table 4). They are illustrated on FIGS. 3 and 4.
(§3) The selectivity of compound 69 was evaluated at 1 μM toward another panel containing all four p38 MAPK isoforms, ERK1, ERK2 as well as other protein kinases close to p38α MAPK in the kinome phylogenetic tree (FIG. 4, Table 4). […] Its IC50 toward p38α MAPK was determined, showing a value in the micromolar range (IC50=3.0±0.1 μM).

CDK5 = CDK5 (Homo sapiens (Human), UniProt Q00535); assay: ICKP protein kinase panel screening; assay type: biochemical; details: duplicate assays, read-out: mean % residual activity
Experimental: as §1, §2, §3

ERK1 = ERK1 (Homo sapiens (Human), UniProt P27361); assay: ICKP protein kinase panel screening; assay type: biochemical; details: duplicate assays, read-out: mean % residual activity
Experimental: as §1, §2, §3

ERK2 = ERK2 (Homo sapiens (Human), UniProt P28482); assay: ICKP protein kinase panel screening; assay type: biochemical; details: duplicate assays, read-out: mean % residual activity
Experimental: as §1, §2, §3

ERK5 = ERK5 (Homo sapiens (Human), UniProt Q13164); assay: ICKP protein kinase panel screening; assay type: biochemical; details: duplicate assays, read-out: mean % residual activity
Experimental: as §1, §2, §3

ERK8 = ERK8 (Homo sapiens (Human), UniProt Q8TD08); assay: ICKP protein kinase panel screening; assay type: biochemical; details: duplicate assays, read-out: mean % residual activity
Experimental: as §1, §2, §3

JNK2 = JNK2 (Homo sapiens (Human), UniProt P45984); assay: ICKP protein kinase panel screening; assay type: biochemical; details: duplicate assays, read-out: mean % residual activity
Experimental: as §1, §2, §3

JNK3 = JNK3 (Homo sapiens (Human), UniProt P53779); assay: ICKP protein kinase panel screening; assay type: biochemical; details: duplicate assays, read-out: mean % residual activity
Experimental: as §1, §2, §3

p38b MAPK = p38b MAPK (Homo sapiens (Human), UniProt Q15759); assay: ICKP protein kinase panel screening; assay type: biochemical; details: duplicate assays, read-out: mean % residual activity
Experimental: as §1, §2, §3

p38d MAPK = p38d MAPK (Homo sapiens (Human), UniProt O15264); assay: ICKP protein kinase panel screening; assay type: biochemical; details: duplicate assays, read-out: mean % residual activity
Experimental: as §1, §2, §3

p38g MAPK = p38g MAPK (Homo sapiens (Human), UniProt P53778); assay: ICKP protein kinase panel screening; assay type: biochemical; details: duplicate assays, read-out: mean % residual activity
Experimental: as §1, §2, §3

[1] = system: facial neuropathic MA (IoN-CCl); assay: Neuropathic MA: chronic constriction injury of the infraorbital nerve (IoN-CCl); assay type: in vivo; details: rat, intracisternal 5 μL at 100 μM, 14 days after IoN-CCl
Experimental: Time courses of changes in behavioral responses (allodynic score) evoked by normally innocuous mechanical stimuli (6-g von Frey filament) applied on the face of rats intracisternally treated with compound 69 (5 μL at 100 μM) or vehicle. In A, compound 69 or vehicle was preemptively applied 30 min before subcutaneous injection of CFA (at time 0). In B, compound 69 or vehicle was applied (at time 0) 14 days after IoN-CCl; that is, once a stable MA was established. […] Results are presented as mean±s.e.m.; n=4 (A) and n=5 (B) in each group. Allodynic score (from 0 to 4) according to Vos et al. J. Neurosci. 1994, 14, 2708-2723.
Rat model of neuropathic MA: chronic constriction injury of the rat's infraorbital nerve (IoN-CCl).
IoN-CCl was performed following a previously established surgical procedure Vos et al J. Neurosci. […]
For investigating the effects of synthetized compounds upon mechanical allodynia, animals were briefly (<2 min) anesthetized using a mask with 2% isoflurane and received an intracisternal injection of 5 μL of compound (100 μM) or vehicle alone (saline+1% DMSO) using a 10 μL Hamilton syringe. […] The behavioral responses were observed and quantified by a second experimenter (see below). […]
Compound 69 was also evaluated in a rat model of facial neuropathic MA produced by the constriction injury of the rat infraorbital nerve (IoN-CCl; J. Neurosci. 1994, 14, 2708-2723) (FIG. 2B). […]

p38b MAPK, sequence (Q15759 whole entry): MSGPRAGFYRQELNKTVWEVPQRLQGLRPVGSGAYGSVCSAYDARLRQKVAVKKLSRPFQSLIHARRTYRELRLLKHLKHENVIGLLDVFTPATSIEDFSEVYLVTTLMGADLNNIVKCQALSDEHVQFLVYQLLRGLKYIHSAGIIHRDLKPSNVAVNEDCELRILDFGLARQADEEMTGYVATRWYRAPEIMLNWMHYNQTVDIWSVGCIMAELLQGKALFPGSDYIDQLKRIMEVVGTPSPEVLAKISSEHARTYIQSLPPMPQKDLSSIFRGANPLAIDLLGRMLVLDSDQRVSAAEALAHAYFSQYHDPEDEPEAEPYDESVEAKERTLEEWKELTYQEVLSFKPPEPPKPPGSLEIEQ
ERK5, sequence (Q13164 whole entry): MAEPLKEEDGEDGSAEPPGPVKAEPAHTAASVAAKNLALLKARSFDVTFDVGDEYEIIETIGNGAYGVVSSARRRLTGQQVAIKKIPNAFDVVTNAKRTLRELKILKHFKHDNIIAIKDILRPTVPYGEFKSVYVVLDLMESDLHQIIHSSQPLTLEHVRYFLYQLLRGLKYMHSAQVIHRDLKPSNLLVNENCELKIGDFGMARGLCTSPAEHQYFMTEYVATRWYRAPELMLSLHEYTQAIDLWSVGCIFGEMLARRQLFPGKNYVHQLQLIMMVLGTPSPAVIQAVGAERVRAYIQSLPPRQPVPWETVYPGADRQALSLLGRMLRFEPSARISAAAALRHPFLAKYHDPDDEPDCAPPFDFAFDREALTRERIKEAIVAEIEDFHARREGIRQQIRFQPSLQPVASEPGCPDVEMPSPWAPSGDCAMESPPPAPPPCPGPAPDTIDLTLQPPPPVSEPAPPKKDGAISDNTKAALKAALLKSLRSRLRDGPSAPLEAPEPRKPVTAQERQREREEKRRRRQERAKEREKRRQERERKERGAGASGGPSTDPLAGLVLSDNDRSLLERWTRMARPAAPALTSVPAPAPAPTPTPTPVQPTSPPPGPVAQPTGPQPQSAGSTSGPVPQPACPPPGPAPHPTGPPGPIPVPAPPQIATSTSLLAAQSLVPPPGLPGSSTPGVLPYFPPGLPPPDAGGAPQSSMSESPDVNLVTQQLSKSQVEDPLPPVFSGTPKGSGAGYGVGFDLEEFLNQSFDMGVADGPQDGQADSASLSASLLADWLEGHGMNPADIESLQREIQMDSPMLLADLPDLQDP
CDK5, sequence (Q00535 whole entry): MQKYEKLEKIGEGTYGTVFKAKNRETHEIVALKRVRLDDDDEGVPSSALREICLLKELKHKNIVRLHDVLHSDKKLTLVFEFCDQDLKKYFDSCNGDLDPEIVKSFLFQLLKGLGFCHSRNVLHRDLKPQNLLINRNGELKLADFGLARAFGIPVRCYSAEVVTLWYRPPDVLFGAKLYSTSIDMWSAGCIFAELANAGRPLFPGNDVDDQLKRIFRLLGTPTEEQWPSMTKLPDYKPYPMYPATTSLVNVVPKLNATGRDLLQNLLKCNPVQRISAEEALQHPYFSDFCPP
CDK5, sequence (Q15078 whole entry partner): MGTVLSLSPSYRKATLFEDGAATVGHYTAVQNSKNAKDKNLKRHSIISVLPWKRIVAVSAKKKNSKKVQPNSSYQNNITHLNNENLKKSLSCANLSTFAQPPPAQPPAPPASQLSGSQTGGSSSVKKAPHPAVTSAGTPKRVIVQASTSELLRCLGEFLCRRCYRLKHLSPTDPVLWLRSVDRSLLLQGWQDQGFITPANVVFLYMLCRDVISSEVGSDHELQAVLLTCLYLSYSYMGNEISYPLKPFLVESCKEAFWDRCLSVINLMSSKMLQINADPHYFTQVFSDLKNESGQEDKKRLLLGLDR
p38g MAPK, sequence (P53778 whole entry): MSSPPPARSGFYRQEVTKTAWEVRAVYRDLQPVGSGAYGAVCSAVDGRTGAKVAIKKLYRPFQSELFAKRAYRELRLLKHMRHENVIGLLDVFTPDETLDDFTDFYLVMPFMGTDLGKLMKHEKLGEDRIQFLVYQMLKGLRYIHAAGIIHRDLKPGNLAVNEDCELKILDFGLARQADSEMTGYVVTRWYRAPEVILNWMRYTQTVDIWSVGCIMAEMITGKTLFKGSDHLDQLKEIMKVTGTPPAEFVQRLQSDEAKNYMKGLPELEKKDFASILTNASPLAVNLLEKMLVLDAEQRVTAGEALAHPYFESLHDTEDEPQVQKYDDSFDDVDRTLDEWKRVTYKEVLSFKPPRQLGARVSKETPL
ERK2, sequence (P28482 whole entry): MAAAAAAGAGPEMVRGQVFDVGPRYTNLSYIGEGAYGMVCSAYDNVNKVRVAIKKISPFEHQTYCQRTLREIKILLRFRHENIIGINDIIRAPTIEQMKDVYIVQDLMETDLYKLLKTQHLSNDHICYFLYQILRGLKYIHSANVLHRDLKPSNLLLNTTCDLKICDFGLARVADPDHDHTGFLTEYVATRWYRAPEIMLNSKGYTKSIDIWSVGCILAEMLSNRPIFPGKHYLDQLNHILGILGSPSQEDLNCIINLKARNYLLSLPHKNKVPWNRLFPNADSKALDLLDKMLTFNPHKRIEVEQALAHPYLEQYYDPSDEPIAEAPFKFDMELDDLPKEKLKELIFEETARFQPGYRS
p38d MAPK, sequence (O15264 whole entry): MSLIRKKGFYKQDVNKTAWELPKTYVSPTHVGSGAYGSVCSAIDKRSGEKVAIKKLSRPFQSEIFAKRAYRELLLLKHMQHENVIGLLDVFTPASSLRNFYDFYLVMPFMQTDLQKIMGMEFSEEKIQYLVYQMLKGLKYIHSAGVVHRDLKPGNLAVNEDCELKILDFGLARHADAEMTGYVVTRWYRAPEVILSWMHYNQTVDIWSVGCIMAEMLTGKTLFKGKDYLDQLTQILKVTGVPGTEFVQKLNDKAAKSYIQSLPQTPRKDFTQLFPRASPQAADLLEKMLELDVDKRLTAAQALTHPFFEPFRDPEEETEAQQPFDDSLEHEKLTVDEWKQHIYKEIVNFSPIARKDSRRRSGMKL
JNK2, sequence (P45984 whole entry): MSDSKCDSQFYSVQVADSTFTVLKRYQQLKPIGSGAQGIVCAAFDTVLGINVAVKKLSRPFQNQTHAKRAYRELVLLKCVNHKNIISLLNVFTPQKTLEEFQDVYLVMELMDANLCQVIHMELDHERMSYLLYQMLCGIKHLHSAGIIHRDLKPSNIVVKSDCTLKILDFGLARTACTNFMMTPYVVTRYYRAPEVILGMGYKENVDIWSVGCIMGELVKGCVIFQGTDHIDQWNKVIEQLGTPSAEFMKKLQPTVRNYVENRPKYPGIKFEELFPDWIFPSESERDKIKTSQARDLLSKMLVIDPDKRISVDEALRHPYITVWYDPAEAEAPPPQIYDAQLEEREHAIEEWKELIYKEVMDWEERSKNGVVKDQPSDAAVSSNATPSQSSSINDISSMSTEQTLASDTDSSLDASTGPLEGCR
JNK3, sequence (P53779 whole entry): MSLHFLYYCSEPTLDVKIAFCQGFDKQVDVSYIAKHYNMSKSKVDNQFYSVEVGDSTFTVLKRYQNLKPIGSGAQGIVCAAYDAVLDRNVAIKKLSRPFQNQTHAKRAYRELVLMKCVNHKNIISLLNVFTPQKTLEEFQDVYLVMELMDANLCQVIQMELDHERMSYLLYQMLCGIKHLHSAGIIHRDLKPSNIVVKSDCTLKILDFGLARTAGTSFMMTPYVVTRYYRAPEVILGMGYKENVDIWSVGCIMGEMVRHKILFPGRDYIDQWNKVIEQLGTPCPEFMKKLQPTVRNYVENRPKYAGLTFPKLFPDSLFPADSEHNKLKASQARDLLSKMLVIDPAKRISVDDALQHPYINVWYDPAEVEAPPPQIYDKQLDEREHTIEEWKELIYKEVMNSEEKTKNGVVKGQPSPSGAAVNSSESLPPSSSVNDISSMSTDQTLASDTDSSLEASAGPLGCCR
ERK8, sequence (Q8TD08 whole entry): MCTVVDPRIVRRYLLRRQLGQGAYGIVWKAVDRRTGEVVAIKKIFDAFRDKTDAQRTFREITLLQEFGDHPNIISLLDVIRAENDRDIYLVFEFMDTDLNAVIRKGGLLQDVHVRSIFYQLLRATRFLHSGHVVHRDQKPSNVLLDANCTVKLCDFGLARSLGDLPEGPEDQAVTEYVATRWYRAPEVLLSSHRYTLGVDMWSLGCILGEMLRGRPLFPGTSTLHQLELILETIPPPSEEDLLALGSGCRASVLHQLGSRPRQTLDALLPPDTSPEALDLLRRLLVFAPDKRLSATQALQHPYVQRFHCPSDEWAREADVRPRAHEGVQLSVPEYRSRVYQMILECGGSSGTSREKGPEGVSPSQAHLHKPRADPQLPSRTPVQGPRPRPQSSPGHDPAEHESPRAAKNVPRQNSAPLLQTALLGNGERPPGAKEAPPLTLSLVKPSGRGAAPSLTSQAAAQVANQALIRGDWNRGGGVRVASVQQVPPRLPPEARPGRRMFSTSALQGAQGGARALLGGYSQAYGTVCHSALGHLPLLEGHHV
ERK1, sequence (P27361 whole entry): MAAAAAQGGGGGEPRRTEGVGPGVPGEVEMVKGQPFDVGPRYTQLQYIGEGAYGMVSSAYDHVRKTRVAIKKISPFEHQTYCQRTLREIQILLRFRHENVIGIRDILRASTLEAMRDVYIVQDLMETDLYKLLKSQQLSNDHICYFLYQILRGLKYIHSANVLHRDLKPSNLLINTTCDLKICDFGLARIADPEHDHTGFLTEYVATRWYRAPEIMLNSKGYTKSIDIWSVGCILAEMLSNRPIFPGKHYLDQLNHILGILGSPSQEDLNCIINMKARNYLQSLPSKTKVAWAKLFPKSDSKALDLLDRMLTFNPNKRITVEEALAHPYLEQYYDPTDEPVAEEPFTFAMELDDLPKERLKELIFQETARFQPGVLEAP

O=c1[nH]cc(Nc2ccccc2)cc1-c1ccccc1Br [Compound 69, 3-(2-Bromophenyl)-5-(phenylamino)pyridin-2(1H)-one]
remaining activity at 1 µM (CDK2-Cyclin A): 119% | remaining activity at 1 µM (CDK5): 103% | remaining activity at 1 µM (ERK1): 120% | remaining activity at 1 µM (ERK2): 109% | remaining activity at 1 µM (ERK5): 101% | remaining activity at 1 µM (ERK8): 144% | remaining activity at 1 µM (JNK2): 103% | remaining activity at 1 µM (JNK3): 115% | remaining activity at 1 µM (p38b MAPK): 116% | remaining activity at 1 µM (p38d MAPK): 112% | remaining activity at 1 µM (p38g MAPK): 103% | reversal of neuropathic MA (allodynic score) [1]: reversed MA; also recorded: quickly reversed
